These results are taken from patent publication EP4570802A1, “SALT TYPE AND CRYSTAL FORM OF BENZAZEPINE FUSED RING COMPOUND AND USE THEREOF” (SHANGHAI JEYOU PHARMACEUTICAL CO., LTD., priority 2022, dated 2024).

Counter-ions that a name gives are not always drawn.

Holding throughout (type): physicochemical
The nature of data set [1]: Dynamic vapor sorption analysis (DVS). On the procedure: Dynamic vapor sorption analysis was performed using DVS Intrinsic (SMS, UK). The test was performed in gradient mode with a humidity change of 50%-95%-0%-50%, and 10% humidity change per gradient in the range of 0% to 90%. The gradient endpoint was determined by dm/dt, and was defined as when dm/dt was less than 0.002% and maintained for 10 minutes. After the test was completed, the sample was analyzed by XRPD to confirm whether the solid morphology had changed.

The nature of data set [2]: Stability study (solid state, XRPD characterization after 7 days and 15 days). As to conditions: high temperature (60°C), high humidity (25°C/92.5% RH), light (25°C/4500 Lux) and accelerated (40°C/75% RH) conditions, 15 days. Here is the method: Approximately 20 mg of sample was weighed into a weighing bottle and exposed to high temperature (60°C), high humidity (25°C/92.5% RH), light (25°C/4500 Lux), and accelerated (40°C/75% RH) conditions, followed by sampling for XRPD characterization after 7 days and 15 days.
Samples were taken for XRPD characterization after 7 days and 15 days. 62 to 65. […]

A short description of data set [3]: Solubility test in biological media (dynamic solubility in FaSSIF, FeSSIF, FaSSGF; pH of the 24-hour supernatant; XRPD of remaining solid). As to conditions: listed as Crystal form A of maleate; for Final pH: 24-hour supernatant; for Solubility (mg/mL) 0.5 h: 30 min; for Solubility (mg/mL) 2h: 120 min; for Solubility (mg/mL) 24 h: 1440 min; for XRPD for remaining solid: remaining solid after 24 hours. Here is the method:
Samples of different crystal forms were added to biological media and shaken at a constant temperature of 37°C for 24 hours, followed by sampling at 0.5 hours, 2 hours, and 24 hours, respectively, and the sampled solution was filtered using a 0.22 µm hydrophilic filter membrane. Some of the samples with higher concentrations were appropriately diluted with a diluent, and the signal peak area of the solution was measured by HPLC. Finally, the concentration of the compound in the solution was calculated based on the peak area, the HPLC standard curve of the starting material, and the dilution factor. In addition, the 24-hour supernatant was tested for pH, and the remaining solid was subjected to XRPD testing.

`O=C(Nc1ccc(C(=O)N2CC[C@@H]3CCN[C@H]3c3cc(Cl)ccc32)cn1)c1ccccc1C(F)(F)F` [crystal form A of maleate] showed a weight loss in data set [1] (DVS, at 0% RH) of 0.24%. Further, the weight gain in data set [1] (DVS, at 80% RH) turned out to be 0.09%; in data set [1] (DVS, at 95% RH) it was 0.23%. Also, the hygroscopicity result in data set [1] (conclusion from DVS) was “almost no hygroscopicity”. For the same molecule, in data set [1] (solid form after DVS testing), the “XRPD after DVS testing” value is reported as “no morphological change”. In data set [2], the “stability (crystal transformation by XRPD)” value was “stable”. Moreover, the “Final pH” value in data set [3] (FaSSGF) is 1.7; in data set [3] (FaSSIF), 6.1; in data set [3] (FeSSIF), 5.0. Also, the “Solubility (mg/mL) 0.5 h” value in data set [3] (FaSSGF, pH 1.6, 37°C) is on record as 1.44 mg/mL; in data set [3] (FaSSIF, pH 6.5, 37°C), 0.66 mg/mL; in data set [3] (FeSSIF, pH 5.0-5.1, 37°C), 1.08 mg/mL. Further, the “Solubility (mg/mL) 2h” value in data set [3] (FaSSGF, pH 1.6, 37°C) came to 1.43 mg/mL; in data set [3] (FaSSIF, pH 6.5, 37°C), 0.69 mg/mL; in data set [3] (FeSSIF, pH 5.0-5.1, 37°C), 1.28 mg/mL. Further, the “Solubility (mg/mL) 24 h” value in data set [3] (FaSSGF, pH 1.6, 37°C) was 1.02 mg/mL; in data set [3] (FaSSIF, pH 6.5, 37°C), 0.57 mg/mL; in data set [3] (FeSSIF, pH 5.0-5.1, 37°C), 0.31 mg/mL. In addition, the figures for the “XRPD for remaining solid” value in data set [3] (FaSSGF), in data set [3] (FaSSIF) and in data set [3] (FeSSIF) were “Crystal form A of maleate + new peak”, “Obvious change” and “Obvious change”, respectively.
